Among the data in patent US10954214B2 (Janssen Pharmaceutica NV, priority 2016, dated 2021) are IC50 values, retold here.

One experiment deals with TMD8 cells. The experiment in a line: 4-day proliferation assay, TMD8. It is filed as cell-based. The settings on record: Homo sapiens, 96 h, 4 days incubation, CellTiterGLO, read-out: Anti-proliferation: TMD-8 IC50. In outline:
(§1)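 TMD8 and OCI-Ly3 cells were seeded at 10,000 per well and grown 4 days at 37° C, 5% CO2 without beta-mercaptoethanol. Viability was read by CellTiter-Glo luminescence. IC50 and Hill slope were fitted relative to the low control median.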

The test system of the next experiment is Jurkat cells. Briefly: PMA Induced IL2 Production In Jurkat Cells. It is filed as cell-based. The settings on record: Homo sapiens, PMA/Ionomycin, 20 h, read-out: IL-2 prod h Jurkat PMA IC50. The method, then: Jurkat cells were maintained in complete RPMI 1640 media containing 10% fetal bovine serum, 10 mM HEPES, 100 units/mL of penicillin and 100 μg/mL of streptomycin. Prior to the assay, compounds were made 2- to 4-fold serial dilutions in DMSO. A volume of 10 μL of DMSO-diluted compound in each well were further diluted into 240 μL RPMI1640 complete media. Jurkat cells were harvested by centrifuge at 1200 RPM for 5 min, washed one time with RPMI 1640 media, and suspended in fresh complete RPMI 1640 media at concentration of 1.25×10^6 cell/mL. A volume of 160 uL of Jurkat cells (2×10^5 cells) were seeded in each well of 96 well plate-bottom plates. A volume of 20 uL of diluted compound in RMPI 1640 complete media were added to each well and incubated with Jurkat cells for 30 min at 37° C. in a 5% CO2 incubator. A volume 20 μL of diluted PMA/Ionomycin (81 nM/1.3 uM respectively, ebioscience, catalog number 00-4970-93) in RMPI 1640 complete media were added to each well. After incubation at 37° C. in 5% CO2 incubator for 20 h, supernatants were harvested. IL-2 concentration was assessed by ELISA (IL2 Duoset, R&D Systems, catalog number DY202). Colorimetric intensity at 450 nm was read by Spectramax plate reader and analyzed with Softmax Pro software. Cell viability was assessed by Cell Titer Glo kit (Promega, catalog number G7571) using Victor Luminescence reader (Victor 3V 4202938 by Perkin Elmer).

For a further experiment, the system named is OCI-Ly3 cells. The experiment in a line: 4-day proliferation assay, OCI-Ly3. Type of experiment: cell-based, human. As to conditions: Homo sapiens, 96 h, 4 days incubation, CellTiterGLO, read-out: Anti-proliferation: OCI-LY-3 IC50. In outline:
as §1

Experiment [1] has as its system IL10 secretion by TMD8 ABC-DLBCL cells. Briefly: Human IL10 Mesoscale assay (TMD-8). Type of experiment: cell-based. The settings on record: Homo sapiens, TMD8; TMD-8 cells, 24 h. In outline:
(§2)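 Compounds tested from 15 μM to 58.6 nM (twofold, 9 concentrations) on 100,000 cells per well over 24 h at 37° C, without beta-mercaptoethanol. Secreted cytokine in supernatant detected by MSD electrochemiluminescence; scaling used DMSO as maximum and RN486 as full inhibition.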

For experiment [2], the target named is full-length MALT1 protein (Strep-MALT1(1-824)-His) (Homo sapiens (Human), UniProt Q9UDY8). Briefly: MALT1 Biochemical Protease Assay (Ac-LRSR-AMC substrate). The settings on record: 10 nM FL MALT1, 200 μM Ac-LRSR-AMC, 4 h at RT; read-out: MALT1_Biochemical activity (Ac-LRSR-amc) IC50. In outline:
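Full-length MALT1 pre-incubated with compounds (30 μM to 0.5 nM, 11 threefold steps) for 50 min at RT. After Ac-LRSR-AMC was added, the reaction ran 4 h at RT and AMC fluorescence was read. IC50 and Hill slope from curve fitting against no-enzyme and no-compound controls.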

Experiment [3] has as its system IL6 secretion by TMD8 ABC-DLBCL cells. The experiment in a line: Human IL6 Mesoscale assay (TMD-8). Type of experiment: cell-based. The settings on record: Homo sapiens, TMD8; TMD-8 cells, 24 h. A digest of the protocol: as §2

Molecules are shown by their SMILES.

Sequence of full-length MALT1 protein (Strep-MALT1(1-824)-His) (Q9UDY8 whole entry): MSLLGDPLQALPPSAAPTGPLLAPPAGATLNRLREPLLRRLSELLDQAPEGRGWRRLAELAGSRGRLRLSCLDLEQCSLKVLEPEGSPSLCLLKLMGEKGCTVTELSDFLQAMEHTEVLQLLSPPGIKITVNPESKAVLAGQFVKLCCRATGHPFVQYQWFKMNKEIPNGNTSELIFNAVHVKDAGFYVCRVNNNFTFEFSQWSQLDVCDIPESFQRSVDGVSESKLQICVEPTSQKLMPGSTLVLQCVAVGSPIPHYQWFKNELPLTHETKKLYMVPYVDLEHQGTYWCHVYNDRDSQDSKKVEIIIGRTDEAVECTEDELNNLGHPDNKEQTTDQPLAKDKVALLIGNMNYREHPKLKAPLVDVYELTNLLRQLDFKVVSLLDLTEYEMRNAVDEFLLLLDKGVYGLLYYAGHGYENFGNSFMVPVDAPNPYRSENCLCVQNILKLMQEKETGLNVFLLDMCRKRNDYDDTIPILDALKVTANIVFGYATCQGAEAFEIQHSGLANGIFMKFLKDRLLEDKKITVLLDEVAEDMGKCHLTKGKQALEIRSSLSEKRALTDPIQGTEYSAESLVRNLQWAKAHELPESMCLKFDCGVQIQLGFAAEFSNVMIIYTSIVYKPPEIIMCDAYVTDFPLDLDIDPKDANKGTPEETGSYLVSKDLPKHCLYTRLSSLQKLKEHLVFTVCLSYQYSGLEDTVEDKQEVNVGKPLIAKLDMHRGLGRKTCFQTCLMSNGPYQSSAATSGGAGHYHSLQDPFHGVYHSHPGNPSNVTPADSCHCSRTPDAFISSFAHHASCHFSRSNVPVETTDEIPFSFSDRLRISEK

Take `N#Cc1ncc(NC(=O)c2cnn(-c3cncc4ccccc34)c2C(F)(F)F)cc1F` [Cpd 41, N-(6-cyano-5-fluoropyridin-3-yl)-1-(isoquinolin-4-yl)-5-(trifluoromethyl)-1H-pyrazole-4-carboxamide]: the IC50 in the experiment on TMD8 cells was more than 20000 nM; in the experiment with Jurkat cells, 300 nM; with OCI-Ly3 cells, 1580 nM; in experiment [1], 851 nM; in experiment [2] it was 891 nM; in experiment [3] it was approximately 2090 nM.
As for `O=C(Nc1cnc(N2CCCS2(=O)=O)c(Cl)c1)c1cnn(-c2cncc3ccccc23)c1C(F)(F)F` [Cpd 42, N-(5-Chloro-6-(1,1-dioxidoisothiazolidin-2-yl)pyridin-3-yl)-1-(isoquinolin-4-yl)-5-(trifluoromethyl)-1H-pyrazole-4-carboxamide], the IC50 is 6170 nM in the experiment with TMD8 cells; 11 nM in the experiment with Jurkat cells; 560 nM in the experiment on OCI-Ly3 cells; approximately 110 nM in experiment [1]; 162 nM in experiment [2]; 117 nM in experiment [3].
For the compound `CN1CCC(Oc2ncc(NC(=O)c3cnn(-c4cncc5ccccc45)c3C(F)(F)F)cc2Cl)CC1` [Cpd 45, N-(5-chloro-6-((1-methylpiperidin-4-yl)oxy)pyridin-3-yl)-1-(isoquinolin-4-yl)-5-(trifluoromethyl)-1H-pyrazole-4-carboxamide], the IC50 is approximately 9330 nM in the experiment on TMD8 cells; 73 nM with Jurkat cells; 340 nM in the experiment with OCI-Ly3 cells; 204 nM in experiment [1]; 398 nM in experiment [2]; 355 nM in experiment [3].
Regarding `O=C(Nc1cnc(-n2cccn2)c(Cl)c1)c1cnn(-c2cncc3ccccc23)c1C(F)(F)F` [Cpd 46, N-(5-Chloro-6-(1H-pyrazol-1-yl)pyridin-3-yl)-1-(isoquinolin-4-yl)-5-(trifluoromethyl)-1H-pyrazole-4-carboxamide], the IC50 is 9330 nM in the experiment on TMD8 cells; 22 nM with Jurkat cells; 630 nM in the experiment on OCI-Ly3 cells; 32 nM in experiment [1]; 56 nM in experiment [2]; approximately 46 nM in experiment [3].
With `N#Cc1cc(NC(=O)c2cnn(-c3cncc4ccccc34)c2C(F)(F)F)cnc1-n1nccn1` [Cpd 47, N-(5-cyano-6-(2H-1,2,3-triazol-2-yl)pyridin-3-yl)-1-(isoquinolin-4-yl)-5-(trifluoromethyl)-1H-pyrazole-4-carboxamide], the IC50 in the experiment on TMD8 cells is 8130 nM; with Jurkat cells it was 9 nM; in the experiment with OCI-Ly3 cells it was approximately 190 nM; in experiment [1], approximately 10 nM; in experiment [2] it was 11 nM; in experiment [3], approximately 48 nM.
Regarding `CN1CCN(C(=O)c2ncc(NC(=O)c3cnn(-c4cncc5ccccc45)c3C(F)(F)F)cc2Cl)CC1` [Cpd 48, N-(5-chloro-6-(4-methylpiperazine-1-carbonyl)pyridin-3-yl)-1-(isoquinolin-4-yl)-5-(trifluoromethyl)-1H-pyrazole-4-carboxamide], the IC50 was 16200 nM in the experiment with TMD8 cells; 450 nM with Jurkat cells; 300 nM in the experiment with OCI-Ly3 cells; approximately 2140 nM in experiment [1]; 631 nM in experiment [2]; approximately 830 nM in experiment [3].
Take `N#Cc1ncc(NC(=O)c2cnn(-c3cncc4ccccc34)c2C(F)(F)F)cc1C(F)(F)F` [Cpd 49, N-(6-cyano-5-(trifluoromethyl)pyridin-3-yl)-1-(isoquinolin-4-yl)-5-(trifluoromethyl)-1H-pyrazole-4-carboxamide]: the IC50 is 5010 nM with TMD8 cells; 18 nM with Jurkat cells; 410 nM in the experiment with OCI-Ly3 cells; 76 nM in experiment [1]; 155 nM in experiment [2]; approximately 83 nM in experiment [3].
`O=C(Nc1cnc(-c2ncco2)c(Cl)c1)c1cnn(-c2cncc3ccccc23)c1C(F)(F)F` [Cpd 50, N-(5-Chloro-6-(oxazol-2-yl)pyridin-3-yl)-1-(isoquinolin-4-yl)-5-(trifluoromethyl)-1H-pyrazole-4-carboxamide]: the IC50 in the experiment on TMD8 cells came out at 7080 nM; in the experiment with Jurkat cells it was 31 nM; in the experiment with OCI-Ly3 cells, 90 nM; in experiment [1] it was 47 nM; in experiment [2], 20 nM; in experiment [3], 107 nM.
